Experimental data: ChEMBL document CHEMBL1135808, “A new type of mixed anhydride and its applications to the synthesis of 7-substituted 8-chloro-5,5-dioxoimidazo[1,2-b][1,4,2]benzodithiazines with in vitro antitumor activity” (2002)

Assays:
T47D = test: In vitro total growth inhibition against breast cancer […] cell lines was reported.; type: functional; settings: Homo sapiens, read-out: Log TGI (converted)
BT-549 [1] = test: In vitro growth inhibition against breast cancer BT 549 cell line was reported.; type: functional; settings: Homo sapiens
BT-549 [2] = test: In vitro total growth inhibition against breast cancer BT 549 cell line was reported.; type: functional; settings: Homo sapiens, read-out: Log TGI (converted)
MCF7 [3] = test: In vitro growth inhibition against breast cancer MCF 7 cell line was reported.; type: functional; settings: Homo sapiens
MDA-MB-231 = test: In vitro growth inhibition against breast cancer MDA-MB-231/ATCC cell line was reported.; type: functional; settings: Homo sapiens
MDA-N = test: In vitro growth inhibition against breast cancer MDA-N cell line was reported.; type: functional; settings: Homo sapiens
NCI/ADR-RES = test: In vitro growth inhibition against breast cancer NCI/ADR-RES cell line was reported.; type: functional; settings: Homo sapiens
COLO 205 = test: In vitro total growth inhibition against colon cancer COLO 205 cell lines was reported.; type: functional; settings: Homo sapiens, read-out: Log TGI (converted)
HCT-116 [4] = test: In vitro growth inhibition against colon cancer HCT116 cell line was reported.; type: functional; settings: Homo sapiens
HCT-116 [5] = test: In vitro total growth inhibition against colon cancer HCT116 cell lines was reported.; type: functional; settings: Homo sapiens, read-out: Log TGI (converted)
SF-295 [6] = test: In vitro growth inhibition against CNS cancer SF-295 cell line was reported.; type: functional; settings: Homo sapiens
SF-295 [7] = test: Log of molar concentration leading to 50% cell death against CNS cancer SF-295 cell line was reported; type: functional; settings: Homo sapiens, read-out: Log LC50 (the source's name) (converted)
SF-539 [8] = test: In vitro growth inhibition against CNS cancer SF-539 cell line was reported.; type: functional; settings: Homo sapiens
SF-539 [9] = test: Log of molar concentration leading to 50% cell death against CNS cancer SF-539 cell line was reported; type: functional; settings: Homo sapiens, read-out: Log LC50 (the source's name) (converted)
SNB-19 = test: In vitro growth inhibition against CNS cancer SNB-19 cell line was reported.; type: functional; settings: Homo sapiens
U-251 [10] = test: In vitro growth inhibition against CNS cancer U251 cell line was reported.; type: functional; settings: Homo sapiens
U-251 [11] = test: In vitro total growth inhibition against CNS cancer U251 cell lines was reported.; type: functional; settings: Homo sapiens, read-out: Log TGI (converted)
KM12 [12] = test: In vitro total growth inhibition against colon cancer KM12 cell lines was reported.; type: functional; settings: Homo sapiens, read-out: Log TGI (converted)
K562 = test: In vitro growth inhibition against leukemia K-562 cell line was reported.; type: functional; settings: Homo sapiens
CCRF-CEM = test: In vitro growth inhibition against leukemia CCRF-CEM cell line was reported.; type: functional; settings: Homo sapiens
RPMI-8226 [13] = test: In vitro total growth inhibition against leukemia […] cell lines was reported.; type: functional; settings: Homo sapiens, read-out: Log TGI (converted)
SR = test: In vitro growth inhibition against leukemia SR cell line was reported.; type: functional; settings: Homo sapiens
M14 [14] = test: In vitro growth inhibition against melanoma M14 cell line was reported.; type: functional; settings: Homo sapiens
Malme-3M = test: In vitro growth inhibition against melanoma MALME 3M cell line was reported.; type: functional; settings: Homo sapiens
UACC-257 [15] = test: In vitro total growth inhibition against melanoma UACC-257 cell line was reported.; type: functional; settings: Homo sapiens
HOP-62 = test: Log of molar concentration leading to 50% cell death against non-small-cell lung cancer HOP-62 cell line was reported; type: functional; settings: Homo sapiens, read-out: Log LC50 (the source's name) (converted)
NCI-H46 = test: Log of molar concentration leading to 50% cell death against non-small-cell lung cancer […] cell line was reported; type: functional; settings: Homo sapiens, read-out: Log LC50 (the source's name) (converted)
NCI-H522 [16] = test: Log of molar concentration leading to 50% cell death against non-small-cell lung cancer NCI-522 cell line was reported; type: functional; settings: Homo sapiens, read-out: Log LC50 (the source's name) (converted)
NCI-H522 [17] = test: In vitro total growth inhibition against non-small-cell lung cancer NCI-522 cell lines was reported.; type: functional; settings: Homo sapiens, read-out: Log TGI (converted)
NCI-H23 [18] = test: In vitro total growth inhibition against non-small-cell lung cancer NCI-H23 cell lines was reported.; type: functional; settings: Homo sapiens, read-out: Log TGI (converted)
NCI-H322M [19] = test: In vitro total growth inhibition against non-small-cell lung cancer NCI-H322M cell lines was reported.; type: functional; settings: Homo sapiens, read-out: Log TGI (converted)
OVCAR-4 = test: In vitro total growth inhibition against ovarian cancer OVCAR-4 cell lines was reported.; type: functional; settings: Homo sapiens, read-out: Log TGI (converted)
OVCAR-5 = test: In vitro growth inhibition against ovarian cancer OVCAR-5 cell line was reported.; type: functional; settings: Homo sapiens
DU-145 = test: In vitro total growth inhibition against prostate cancer […] cell lines was reported.; type: functional; settings: Homo sapiens, read-out: Log TGI (converted)
ACHN = test: In vitro total growth inhibition against renal cancer ACHN cell lines was reported.; type: functional; settings: Homo sapiens, read-out: Log TGI (converted)
CAKI-1 = test: In vitro total growth inhibition against renal cancer CAKI-1cell lines was reported.; type: functional; settings: Homo sapiens, read-out: Log TGI (converted)
786-0 [20] = test: In vitro growth inhibition against renal cancer […] cell line was reported.; type: functional; settings: Homo sapiens
786-0 [21] = test: In vitro total growth inhibition against renal cancer […] cell lines was reported.; type: functional; settings: Homo sapiens, read-out: Log TGI (converted)
A498 = test: In vitro growth inhibition against renal cancer A498 cell line was reported.; type: functional; settings: Homo sapiens
RPMI-8226 [22] = test: Log of molar concentration leading to 50% cell death against leukemia […] cell line was reported; type: functional; settings: Homo sapiens, read-out: Log LC50 (the source's name) (converted)
KM12 [23] = test: Log of molar concentration leading to 50% cell death against colon cancer KM12 cell line was reported; type: functional; settings: Homo sapiens, read-out: Log LC50 (the source's name) (converted)
MCF7 [24] = test: Log of molar concentration leading to 50% cell death against breast cancer MCF 7 cell line was reported; type: functional; settings: Homo sapiens, read-out: Log LC50 (the source's name) (converted)
M14 [25] = test: In vitro total growth inhibition against melanoma M14 cell lines was reported.; type: functional; settings: Homo sapiens, read-out: Log TGI (converted)
SK-MEL-2 = test: Log of molar concentration leading to 50% cell death against melanoma SK-MEL-2 cell line was reported; type: functional; settings: Homo sapiens, read-out: Log LC50 (the source's name) (converted)
SK-MEL-28 [26] = test: Log of molar concentration leading to 50% cell death against melanoma SK-MEL-28 cell line was reported; type: functional; settings: Homo sapiens, read-out: Log LC50 (the source's name) (converted)
SK-MEL-28 [27] = test: In vitro total growth inhibition against melanoma SK-MEL-28 cell lines was reported.; type: functional; settings: Homo sapiens, read-out: Log TGI (converted)
SK-MEL-5 = test: In vitro total growth inhibition against melanoma SK-MEL-5 cell lines was reported.; type: functional; settings: Homo sapiens, read-out: Log TGI (converted)
UACC-257 [28] = test: Log of molar concentration leading to 50% cell death against melanoma UACC-257 cell line was reported; type: functional; settings: Homo sapiens, read-out: Log LC50 (the source's name) (converted)
PC-3 [29] = test: Log of molar concentration leading to 50% cell death against prostate cancer PC-3 cell line was reported; type: functional; settings: Homo sapiens, read-out: Log LC50 (the source's name) (converted)
UACC-257 [30] = test: In vitro total growth inhibition against melanoma UACC-257 cell lines was reported.; type: functional; settings: Homo sapiens, read-out: Log TGI (converted)
IGROV-1 [31] = test: Log of molar concentration leading to 50% cell death against ovarian cancer IGROV1 cell line was reported; type: functional; settings: Homo sapiens, read-out: Log LC50 (the source's name) (converted)
A549 = test: In vitro growth inhibition against non-small-cell lung cancer A 549/ATCC cell line was reported.; type: functional; settings: Homo sapiens
NCI-H522 [32] = test: In vitro growth inhibition against non-small-cell lung cancer […] cell line was reported.; type: functional; settings: Homo sapiens
NCI-H23 [33] = test: In vitro growth inhibition against non-small-cell lung cancer NCI-H23 cell line was reported.; type: functional; settings: Homo sapiens
NCI-H322M [34] = test: In vitro growth inhibition against non-small-cell lung cancer […] cell line was reported.; type: functional; settings: Homo sapiens
RXF 393 = test: Log of molar concentration leading to 50% cell death against renal cancer RXF 393 cell line was reported; type: functional; settings: Homo sapiens, read-out: Log LC50 (the source's name) (converted)
UACC-62 = test: Log of molar concentration leading to 50% cell death against melanoma UACC-62 cell line was reported; type: functional; settings: Homo sapiens, read-out: Log LC50 (the source's name) (converted)
IGROV-1 [35] = test: In vitro growth inhibition against ovarian cancer IGROV1 cell line was reported.; type: functional; settings: Homo sapiens
PC-3 [36] = test: In vitro growth inhibition against prostate cancer PC-3 cell line was reported.; type: functional; settings: Homo sapiens
MDA-MB-435 = test: In vitro total growth inhibition against breast cancer MDA-MB-435 cell lines was reported.; settings: Homo sapiens, read-out: Log TGI (converted)

SMILES: O=C(Nc1cccc2nsnc12)c1cc2c(cc1Cl)Sc1nccn1S2(=O)=O
- TGI (T47D): 5.75 µM
- GI50 (BT-549 [1]): 12.3 µM
- TGI (BT-549 [2]): 32.4 µM
- GI50 (MCF7 [3]): 1.74 µM
- GI50 (MDA-MB-231): 6.03 µM
- GI50 (MDA-N): 13.5 µM
- GI50 (NCI/ADR-RES): 17.8 µM
- TGI (COLO 205): 30.9 µM
- GI50 (HCT-116 [4]): 2.57 µM
- TGI (HCT-116 [5]): 5.37 µM
- GI50 (SF-295 [6]): 11.2 µM
- CC50 (SF-295 [7]): 55 µM
- GI50 (SF-539 [8]): 2.24 µM
- CC50 (SF-539 [9]): 15.5 µM
- GI50 (SNB-19): 12 µM
- GI50 (U-251 [10]): 4.57 µM
- TGI (U-251 [11]): 15.8 µM
- TGI (KM12 [12]): 3.89 µM
- GI50 (K562): 4.07 µM
- GI50 (CCRF-CEM): 3.24 µM
- TGI (RPMI-8226 [13]): 4.07 µM
- GI50 (SR): 2 µM
- GI50 (M14 [14]): 17.4 µM
- GI50 (Malme-3M): 66.1 µM
- GI50 (UACC-257 [15]): 1.82 µM
- CC50 (HOP-62): 8.71 µM
- CC50 (NCI-H46): 8.91 µM
- CC50 (NCI-H522 [16]): 89.1 µM
- TGI (NCI-H522 [17]): 22.4 µM
- TGI (NCI-H23 [18]): 25.1 µM
- TGI (NCI-H322M [19]): 3.24 µM
- TGI (OVCAR-4): 10.2 µM
- GI50 (OVCAR-5): 29.5 µM
- TGI (DU-145): 3.24 µM
- TGI (ACHN): 36.3 µM
- TGI (CAKI-1): 19.1 µM
- GI50 (786-0 [20]): 16.6 µM
- TGI (786-0 [21]): 30.2 µM
- GI50 (A498): 13.5 µM
- CC50 (RPMI-8226 [22]): 7.94 µM
- CC50 (KM12 [23]): 7.41 µM
- CC50 (MCF7 [24]): 6.61 µM
- TGI (M14 [25]): 46.8 µM
- CC50 (SK-MEL-2): 64.6 µM
- CC50 (SK-MEL-28 [26]): 46.8 µM
- TGI (SK-MEL-28 [27]): 6.76 µM
- TGI (SK-MEL-5): 33.9 µM
- CC50 (UACC-257 [28]): 6.31 µM
- CC50 (PC-3 [29]): 6.46 µM
- TGI (UACC-257 [30]): 3.39 µM
- CC50 (IGROV-1 [31]): 79.4 µM
- GI50 (A549): 12.6 µM
- GI50 (NCI-H522 [32]): 5.37 µM
- GI50 (NCI-H23 [33]): 11.7 µM
- GI50 (NCI-H322M [34]): 1.78 µM
- CC50 (RXF 393): 56.2 µM
- CC50 (UACC-62): 41.7 µM
- GI50 (IGROV-1 [35]): 5.5 µM
- GI50 (PC-3 [36]): 1.91 µM
- TGI (MDA-MB-435): 49 µM
